{
  "source": "patent US20230147468A1",
  "about": "“RECOMBINANT PEPTIDE TO TREAT FIRE BLIGHT” (INNATE IMMUNITY LLC, priority 2020, published 2023)",
  "key": {"[1]": {"test_system": "apple reference gene", "experiment": "Detached leaf assay, Ct of apple reference gene", "format": "in vivo", "settings": "detached apple leaves treated with 28P-2", "source_text": "Water was used as a control."}, "[2]": {"test_system": "Erwinia amylovora (ATCC 49946)", "experiment": "Minimum inhibitory concentration, serial dilutions of peptide", "format": "cell-based", "settings": "for activity against Erwinia amylovora (MIC assay): Erwinia amylovora ATCC 49946, serial dilutions"}, "[3]": {"test_system": "Xanthomonas euvesicatoria", "experiment": "Minimum inhibitory concentration assay", "format": "cell-based", "settings": "causes spot in tomato"}, "[4]": {"test_system": "Ralstonia solanaeceum", "format": "cell-based", "settings": "causes bacterial wilt in tomato"}, "[5]": {"test_system": "Xanthomonas perforans", "experiment": "Minimum inhibitory concentration assay", "format": "cell-based", "settings": "causes spot in tomato"}, "[6]": {"test_system": "Pseudomonas syringae", "experiment": "Minimum inhibitory concentration assay", "format": "cell-based", "settings": "causes speck in tomato"}},
  "note": "No end group written: not given here.",
  "data": [
    {"sequence": "KRIVQRIKDFLRGPGRKRIVQRIKDFLR [28P-2]", "values": [
      {"measurement": "level (Ct) of apple reference gene upon treatment", "setting": "[1]", "value": "remained unchanged"}
    ]},
    {"sequence": "KEIVRRIEKFLRGPGRKRIVERIEKFLR [28P-8]", "values": [
      {"measurement": "activity against Erwinia amylovora (MIC assay)", "setting": "[2]", "value": "active"}
    ]},
    {"sequence": "KLIKLIKKILKKGPGRKLIKLIKKILKK [28P-4]", "values": [
      {"measurement": "activity against Erwinia amylovora (MIC assay)", "setting": "[2]", "value": "active"}
    ]},
    {"sequence": "KVLSRVHAALKSIFDLGPGRKVLSRVHAALKSIFDL [36P]", "values": [
      {"measurement": "toxicity to Erwinia amylovora by MIC, compared with 28P-2", "setting": "[2]; 36P relative to 28P-2, FIG. 5", "value": "significantly more toxic"},
      {"measurement": "activity against Erwinia amylovora (MIC assay)", "setting": "[2]", "value": "significant activity"},
      {"measurement": "activity against Xanthomonas euvesicatoria", "setting": "[3]", "value": "significant activity"},
      {"measurement": "activity against Ralstonia solanaeceum", "setting": "[4]", "value": "significant activity"},
      {"measurement": "activity against Xanthomonas perforans", "setting": "[5]", "value": "significant activity"},
      {"measurement": "activity against Pseudomonas syringae", "setting": "[6]", "value": "significant activity"}
    ]}
  ]
}
